From patent US8969394B2, “Thiophenecarboxamide derivatives as EP4 receptor ligands” (Merck Frosst Canada Ltd., priority 2006, dated 2015) come the findings set out here.

Molecules are shown by their SMILES.

The target of this assay is EP4 receptor (Homo sapiens (Human), UniProt P35408). Description: Prostanoid receptor binding assay, hEP4 (membranes of transfected HEK 293(ebna) cells). The conditions noted are these: radioligand binding, HEK 293(ebna) membranes, 10 mM MES/KOH pH 6.0. The protocol: Prostanoid receptor cDNAs corresponding to full length coding sequences are subcloned into the appropriate sites of mammalian expression vectors and transfected into HEK 293(ebna) cells. HEK 293(ebna) cells expressing the individual cDNAs are grown under selection and individual colonies are isolated after 2-3 weeks of growth using the cloning ring method and subsequently expanded into clonal cell lines.
Chain of EP4 receptor (P35408 whole entry): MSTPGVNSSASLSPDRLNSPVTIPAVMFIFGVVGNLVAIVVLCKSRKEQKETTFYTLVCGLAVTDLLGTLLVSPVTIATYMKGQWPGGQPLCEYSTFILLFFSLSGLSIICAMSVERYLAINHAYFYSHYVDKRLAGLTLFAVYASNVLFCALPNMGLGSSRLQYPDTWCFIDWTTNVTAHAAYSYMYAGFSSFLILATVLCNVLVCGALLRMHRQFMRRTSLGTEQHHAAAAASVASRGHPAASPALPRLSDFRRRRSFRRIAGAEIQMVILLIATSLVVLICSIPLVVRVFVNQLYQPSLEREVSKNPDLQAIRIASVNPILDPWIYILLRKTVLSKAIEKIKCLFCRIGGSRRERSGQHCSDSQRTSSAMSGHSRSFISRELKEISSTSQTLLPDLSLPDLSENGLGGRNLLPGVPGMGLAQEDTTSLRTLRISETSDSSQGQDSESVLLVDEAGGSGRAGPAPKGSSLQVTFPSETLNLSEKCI
Transfected HEK 293(ebna) cells are maintained in culture, harvested and membranes are prepared by differential centrifugation, following lysis of the cells in the presence of protease inhibitors, for use in receptor binding assays. Prostanoid receptor binding assays (for DP1, DP2 (CRTH2), EP1, EP2, EP3-III, EP4, FP, IP, and TP) are performed in 10 mM MES/KOH (pH 6.0) (EPs, FP and TP) or 10 mM HEPES/KOH (pH 7.4) (DPs and IP), containing 1 mM EDTA, 2.5-30 mM divalent cation and the appropriate radioligand. Synthetic compounds are added in dimethylsulfoxide which is kept constant at 1% (v/v) in all incubations. The reaction is initiated by addition of membrane protein. Non-specific binding is determined in the presence of 10 μM of the corresponding non-radioactive prostanoid. Incubations are conducted for 60-90 min at room temperature or 30° C. and terminated by rapid filtration. Specific binding is calculated by subtracting non specific binding from total binding. The residual specific binding at each ligand concentration is calculated and expressed as a function of ligand concentration in order to construct sigmoidal concentration-response curves. The binding affinity of the compounds is determined by calculating the equilibrium inhibition constant (Ki) from the equation Ki=InPt/1+[radioligand]/Kd where Kd is the equilibrium dissociation constant for the radioligand:receptor interaction and InPt is the inflection point of the dose-response curves.
In general, Ki refers to a measure of affinity in units of concentration, obtained from inhibition or displacement. A lower Ki goes with higher affinity. `CC(NC(=O)c1sc(Cl)cc1Cc1cccc(Cl)c1)c1ccc(C(=O)O)cc1` (stereo not drawn) [Example 1, 4-[1-({[5-chloro-3-(3-chlorobenzyl)-2-thienyl]carbonyl}amino)ethyl]-benzoic acid]: affinity was put at a Ki of 5.2 ± 1.1 nM.

`CC(NC(=O)c1sc(Cl)cc1Cc1cccc(Cl)c1)c1ccc(-c2nn[nH]n2)cc1` (stereo not drawn) [Example 2, 5-chloro-3-(3-chlorobenzyl)-N-{1-[4-(1H-tetrazol-5-yl)phenyl]ethyl}-thiophene-2-carboxamide] gave a Ki of 2.6 ± 0.6 nM.

`C[C@H](NC(=O)c1cscc1Cc1cccc(Cl)c1)c1ccc(C(=O)O)cc1` [Example 3, 4-[(1S)-1-({[4-(3-chlorobenzyl)-3-thienyl]carbonyl}amino)ethyl]benzoic acid] yielded a Ki of 7.9 ± 0.6 nM.

Take `C[C@H](NC(=O)c1csc(Br)c1Cc1cccc(Cl)c1)c1ccc(C(=O)O)cc1` [Example 4, 4-[(1S)-1-({[5-bromo-4-(3-chlorobenzyl)-3-thienyl]carbonyl}amino)ethyl]benzoic acid]: the Ki is 0.71 ± 0.01 nM. Compared with the last molecule, the Ki is about 11-fold lower.

Consider `C[C@H](NC(=O)c1c(Br)sc(Br)c1Cc1cccc(Cl)c1)c1ccc(C(=O)O)cc1` [Example 5, 4-[(1S)-1-({[2,5-dibromo-4-(3-chlorobenzyl)-3-thienyl]carbonyl}amino)ethyl]benzoic acid], for which the inhibitory constant (Ki) was 0.47 ± 0.01 nM.

As for `COC(=O)c1ccc([C@H](C)NC(=O)c2c(Cl)sc(Cl)c2Cc2cccc(Cl)c2)cc1` [Example 6, methyl 4-[(1S)-1-({[2,5-dichloro-4-(3-chlorobenzyl)-3-thienyl]carbonyl}amino)ethyl]benzoate], affinity was put at a Ki of 124 nM.

`C[C@H](NC(=O)c1c(Cl)sc(Cl)c1Cc1cccc(Cl)c1)c1ccc(C(=O)O)cc1` [Example 7, 4-[(1S)-1-({[2,5-dichloro-4-(3-chlorobenzyl)-3-thienyl]carbonyl}amino)ethyl]benzoic acid] yielded an inhibition constant Ki of 1.3 ± 0.6 nM.

For `C[C@H](NC(=O)c1c(Cl)sc(Cl)c1C(OC1CCCCO1)c1cccc(Cl)c1)c1ccc(C(=O)O)cc1` (stereo partly drawn) [Example 8], affinity was put at a Ki of 51 nM.

Regarding `C[C@H](NC(=O)c1c(Cl)sc(Cl)c1C(O)c1cccc(Cl)c1)c1ccc(C(=O)O)cc1` (stereo partly drawn) [Example 9, 4-{(1S)-1-[({2,5-dichloro-4-[(3-chlorophenyl)(hydroxy)methyl]-3-thienyl}carbonyl)amino]ethyl}benzoic acid], the Ki was 1.8 nM.

For `C[C@H](NC(=O)c1c(Cl)sc(Cl)c1C(=O)c1cccc(Cl)c1)c1ccc(C(=O)O)cc1` [Example 10, 4-[(1S)-1-({[2,5-dichloro-4-(3-chlorobenzoyl)-3-thienyl]carbonyl}amino)ethyl]benzoic acid], the Ki turned out to be 7.4 ± 1.3 nM.

`Cc1sc(C)c(C(=O)N[C@@H](C)c2ccc(C(=O)O)cc2)c1Cc1ccc(C(F)(F)F)cc1` [Example 12, 4-{(1S)-1-[({2,5-dimethyl-4-[4-(trifluoromethyl)benzyl]-3-thienyl}carbonyl)amino]ethyl}benzoic acid] yielded a Ki of 1.4 ± 0.4 nM. This Ki lies about 5.3-fold lower than the previous one.

`Cc1sc(C)c(C(=O)NC2(c3ccc(-c4nn[nH]n4)cc3)CC2)c1Cc1ccc(C(F)(F)F)cc1` [Example 14, 2,5-dimethyl-N-{1-[4-(2H-tetrazol-5-yl)phenyl]cyclopropyl}-4-[4-(trifluoromethyl)benzyl]thiophene-3-carboxamide] had a Ki of 0.6 ± 0.1 nM.

Molecule `Cc1sc(C)c(C(=O)NC2(c3ccc(C(=O)O)cc3)CC2)c1Cc1ccc(C(F)(F)F)cc1` [Example 16, 4-{1-[({2,5-dimethyl-4-[4-(trifluoromethyl)benzyl]-3-thienyl}carbonyl)amino]cyclopropyl}benzoic acid] registered an inhibition constant (Ki) of 0.5 ± 0.1 nM.

In the case of `Cc1sc(C)c(C(=O)N[C@@H](C)c2ccc(C(=O)NS(C)(=O)=O)cc2)c1Cc1ccc(C(F)(F)F)cc1` [Example 18, 2,5-dimethyl-N-[(1S)-1-(4-{[(methylsulfonyl)amino]carbonyl}phenyl)ethyl]-4-[4-(trifluoromethyl)benzyl]thiophene-3-carboxamide], affinity was put at a Ki of 308 nM.

`Cc1sc(C)c(C(=O)N[C@@H](C)c2ccc(C(=O)NS(=O)(=O)c3ccccc3)cc2)c1Cc1ccc(C(F)(F)F)cc1` [Example 19, 2,5-dimethyl-N-[(1S)-1-(4-{[(phenylsulfonyl)amino]carbonyl}phenyl)ethyl]-4-[4-(trifluoromethyl)benzyl]thiophene-3-carboxamide] showed a Ki of 133 nM. Compared with the last molecule, the Ki is about 2.3-fold lower.

For `C[C@@H](NC(=O)c1c(Cl)sc(Cl)c1Cc1cccc(Cl)c1)c1ccc(C(=O)O)cc1` [Example 20, 4-[(1R)-1-({[2,5-dichloro-4-(3-chlorobenzyl)-3-thienyl]carbonyl}amino)-ethyl]benzoic acid], the affinity, expressed as Ki, was 0.9 ± 0.2 nM.

`C[C@H](NC(=O)c1c(Cl)sc(Cl)c1Cc1cccc(C(F)(F)F)c1)c1ccc(C(=O)O)cc1` [Example 21, 4-{(1S)-1-[({2,5-dichloro-4-[3-(trifluoromethyl)benzyl]-3-thienyl}carbonyl)-amino]ethyl}benzoic acid]: the Ki is 0.8 ± 0.2 nM.

In turn, `O=C(O)c1ccc(CNC(=O)c2c(Cl)sc(Cl)c2Cc2cccc(Cl)c2)cc1` [Example 22, 4-[({[2,5-dichloro-4-(3-chlorobenzyl)-3-thienyl]carbonyl}amino)-methyl]benzoic acid] came in with a Ki of 0.9 ± 0.1 nM.

The molecule `Cc1sc(C)c(C(=O)N[C@@H](C)c2ccc(C(=O)O)cc2)c1Cc1cccc(Cl)c1` [Example 23, 4-[(1S)-1-({[4-(3-chlorobenzyl)-2,5-dimethyl-3-thienyl]carbonyl}amino)-ethyl]benzoic acid] displayed a Ki of 3.1 ± 0.4 nM.

Regarding `Cc1sc(C)c(C(=O)N[C@@H](C)c2ccc(C(=O)O)cc2)c1Cc1cccc(C(F)(F)F)c1` [Example 24, 4-{(1S)-1-[({2,5-dimethyl-4-[3-(trifluoromethyl)benzyl]-3-thienyl}carbonyl)-amino]ethyl}benzoic acid], the Ki was found to be 2.4 ± 0.2 nM.

`Cc1sc(C)c(C(=O)NCc2ccc(C(=O)O)c(Cl)c2)c1Cc1cccc(Cl)c1` [Example 25, 2-chloro-4-[({[4-(3-chlorobenzyl)-2,5-dimethyl-3-thienyl]carbonyl}amino)-methyl]benzoic acid] had a Ki of 30 nM.

Take `Cc1sc(C)c(C(=O)NC2(c3ccc(-c4nn[nH]n4)cc3)CC2)c1Cc1cccc(C(F)(F)F)c1` [Example 26, 2,5-dimethyl-N-{1-[4-(2H-tetrazol-5-yl)phenyl]cyclopropyl}-4-[3-(trifluoromethyl)benzyl]thiophene-3-carboxamide]: the inhibitory constant (Ki) turned out to be 0.7 ± 0.2 nM.

Take `Cc1sc(C)c(C(=O)NC2(c3ccc(C(=O)O)cc3)CC2)c1Cc1cccc(C(F)(F)F)c1` [Example 28, 4-{1-[({2,5-dimethyl-4-[3-(trifluoromethyl)benzyl]-3-thienyl}carbonyl)-amino]cyclopropyl}benzoic acid]: affinity was put at a Ki of 0.8 ± 0.2 nM.

Consider `Cc1sc(C)c(C(=O)N[C@@H](C)c2ccc(C(=O)O)cc2)c1Cc1ccc(Cl)cc1` [Example 30, 4-[(1S)-1-({[4-(4-chlorobenzyl)-2,5-dimethyl-3-thienyl]carbonyl}amino)-ethyl]benzoic acid], for which the Ki was determined as 3.4 ± 0.2 nM. This Ki lies about 4.2-fold higher than the previous one.
